In US9872882B2, “Aurantiamide dipeptide derivatives for treatment or prevention of angiogenesis-related diseases” (Mackay Medical College, priority 2015, dated 2018):

What was measured:
[1] = tested on: late EPCs; test: Cell proliferation assay (MTT); assay type: cell-based, human; conditions: 48 h treatment, FIG. 1B
Protocol: (§1) This investigation conforms with the principles outlined in the Declaration of Helsinki for use of human tissue. Ethical approval was granted by the Institutional Review Board of the Mackay Memorial Hospital, Taipei, Taiwan. Informed consent was obtained from healthy donors before the collection of peripheral blood (80 mL). The peripheral blood mononuclear cells (PBMCs) were fractionated from other blood components by centrifugation on Ficoll-Paque™ plus (GE Healthcare) according to the manufacturer's instructions. CD34-positive progenitor cells were obtained and cultured. In brief, the cells were isolated from PBMCs using CD34 MicroBead kit and MACSTM Cell Separation System (all from Miltenyi Biotec). CD34-positive EPCs were maintained in MV2 complete medium (PromoCell) consisting of endothelial basal medium, 20% fetal bovine serum, hEGF, VEGF, hFGF-B, IGF-1, ascorbic acid, and heparin. 1×10^6 cells/cm^2 were seeded on fibronectin-coated dish (BD Biosciences) and maintained in 37° C. incubator under a humidified 95% air and 5% CO2 atmosphere.
EPCs (5×10^3 cells/well) were seeded onto 96-well plates. After 24 h incubation, the culture medium was removed and cells were incubated with fresh MV2 complete medium containing 2% FBS for 48 h in the absence or presence of Fmoc-10a. […] Formazan crystal was lysed by dimethyl sulfoxide (DMSO) and absorbance was measured at 550 nm with ELISA-reader.

[2] = tested on: late EPCs; test: Cytotoxicity assay (LDH release); assay type: cell-based, human; conditions: 48 h, even at high concentration (30 μM), FIG. 1C
Protocol: as §1
EPCs were treated with MV2 complete medium containing 2% FBS for 48 h in the absence or presence of Fmoc-10a. The percentage of LDH release was calculated from the ratio of LDH activity in the medium to LDH activity in the cell lysate after Fmoc-10a treatment.

[3] = tested on: late EPCs; test: Transwell cell migration assay; assay type: cell-based, human; conditions: 16 h treatment, FIG. 1D
Protocol: as §1, with “1×10^6 cells/cm^2 were seeded on fibronectin-coated dish (BD Biosciences) and maintained in 37° C. incubator under a humidified 95% air and 5% CO2 atmosphere.” left out
EPCs (5×10^4 cells/well) were seeded onto the upper chamber with MV2 complete medium, then incubated in the bottom chamber with MV2 complete medium containing 2% FBS with the indicated concentrations of Fmoc-10. […] Cell migration was quantified by counting the number of stained cells in 10 random fields with the inverted phase contrast microscope and photographed.

[4] = tested on: late EPCs; test: Capillary tube formation assay on Matrigel; assay type: cell-based, human; conditions: 16 h treatment, FIG. 1E
Protocol: as §1
Matrigel (BD Biosciences, Bedford, Mass.), which was used to promote the differentiation of EPCs into a capillary tube-like structure, was added to 48-well plates. […] Tube formation was quantified by measuring the long axis of each tube in 3 random fields per well by using Image-Pro Plus software.

[5] = tested on: early EPCs; test: Colony-forming assay (CFU-Hill); assay type: cell-based, human; conditions: FIGS. 2A&2B
Excerpt: Isolated PBMCs are resuspended in MV2 complete medium. After 2 days, the nonadherent cells were collected and replated onto a fibronectin-coated 24-well plate. Five days later, the number of colony-forming units (CFUs) od early EPCs per well was counted.

[6] = tested on: early EPCs; test: Early EPC chemotaxis assay (Transwell); assay type: cell-based, human; conditions: 4 hours, FIG. 2C
Protocol: The chemotactic motility of early EPCs was evaluated using a Transwell. The lower filter surface was coated with gelatin. Fmoc-10a in presence or absence of MV2 complete medium was placed in the lower wells. The chamber was incubated at 37° C. for 4 hours. Cells were fixed with cold methanol and stained with 0.5% crystal violet.

[7] = tested on: VEGF-induced vessels sprouting from aortic rings; test: Aortic ring sprouting assay (ex vivo); parameters: species or system Sprague-Dawley rats; conditions: VEGF 20 ng/ml, day 8, FIG. 3A
Protocol: Aortas were harvested from 8- to 10-week-old Sprague-Dawley rats. Following a complete washing, the aortas were cut into 1 mm ring segments. The aortic rings were placed in the 48-well plates which were pre-coated with 130 μl Matrigel and polymerized at 37° C. The wells were subsequently overlaid with another 50 μl Matrigel for sealing. VEGF (20 ng/ml) with or without Fmoc-10a was then added to the well. The cultured medium was changed every 3 days. Sprouting endothelial cells were observed and photographed on day 8. The area of sprouting vessels was measured quantitatively by Image-Pro Plus software.

[8] = tested on: VEGF-induced microvessel formation; test: Directed in vivo angiogenesis assay (DIVAA); parameters: species or system C57BL/6 mice; conditions: VEGF-containing DIVAA tubes implanted in mice, 15 days, FIG. 3B
Protocol: Surgical silicone tubes were filled at 4° C. with Matrigel containing VEGF with or without Fmoc-10a. Then, the dorsal haunches of the anesthetized mice (C57BL/6 mice) were shaved and sterile prepped. A 5 mm cutaneous incision was made and a 10 mm deep subcutaneous pocket was created with a sterile hemostat. DIVAA tubes were incubated at 37° C. for 1 hour to allow gel formation and then implanted into the dorsal flank of mice. After 15 days, DIVAA tubes were taken and photographed. Neovessels were quantified by measuring the hemoglobin of the plug with the Drabkin method. All procedures involving animal experiment were approved by the Institutional Animal Care and Use Committee at Mackay Medical College.

[9] = tested on: B16F10 melanoma cells; test: Matrigel invasion assay; assay type: cell-based, mouse; conditions: B16F10, 16 h, FIG. 4A
Protocol: (§2) Mouse melanoma cell line (B16F10) was obtained from American Type Culture Collection (ATCC, Manassas, Va.) and cultured in DMEM containing 10% FBS, penicillin (100 units/ml), streptomycin (100 μg/ml), and L-glutamine (2[…]mM). Cells were maintained in humidified air containing 5% CO2 at 37° C.
The upper side of the filters was coated with Matrigel (BD Biosciences, Bedford, Mass.) at a concentration of 125 […]μg/cm^2. B16F10 cells (5×10^4 cells/well) were seeded onto the upper chamber with serum-free medium, then incubated in the bottom chamber with culture medium containing 10% FBS in the absence or presence of Fmoc-10a. After 16 h of treatment, cells on the upper side of the filters were mechanically removed, and those migrated on the lower side were fixed with 4% formaldehyde, then stained with 0.5% crystal violet for 10 min. Finally, invaded cells were quantified by counting the number of stained cells in 10 random fields with the inverted phase contrast microscope and photographed.

[10] = tested on: VEGF release from B16F10 melanoma cells; test: VEGF ELISA assay; assay type: cell-based, mouse; conditions: B16F10, 24 hr, ELISA of supernatant, FIG. 4B
Protocol: as §2
B16F10 cells were treated with various concentrations of Fmoc-10a or vehicle for 24 hr, and then the supernatant was collected to examine the amount of vascular endothelial growth factor (VEGF) protein. VEGF mouse ELISA Kit (Novex, Invitrogen) was used according to the manufacturer's instructions.

[11] = tested on: B16F10 melanoma; test: Subcutaneous xenograft model; assay type: in vivo, C57BL/6 mice; conditions: daily intraperitoneal injection, FIG. 4C
Protocol: B16F10 cells (2×10^6) in a volume of 100 μL were injected subcutaneously into the right flank of the C57BL/6 mice. After 9 days, when tumors reached 2 mm in diameter, the mice were randomly given vehicle or the indicated doses of Fmoc-10a daily by intraperitoneal injection. Tumor size and body weight were measured every day. The tumor volume was calculated according to the following formula: V=(length×width^2/2). In accordance with the Animal Ethics Committee, the experiments should be stopped when an unbearable situation appeared in animals.

[12] = tested on: B16F10 cells; test: Experimental metastasis model; assay type: in vivo, C57BL/6 mice; conditions: B16F10 tail vein; 1.5 or 4.5 mg/kg intraperitoneally every day, FIG. 4D
Protocol: B16F10 cells (2×10^6) were slowly injected into the lateral tail vein of C57BL/6 mice to initiate tumor metastasis. Fmoc-10a (1.5 or 4.5 mg/kg) was intraperitoneally administered to mice every day from 3 days before tumor cell injection to 21 days after tumor cell injection (the day sacrificed).

[13] = tested on: hyperoxia-induced retinal neovascularization; test: Oxygen-induced retinopathy (OIR) model; assay type: in vivo, BALB/c-nude mice; conditions: retinal whole mounts, FIG. 5
Excerpt: The mouse model of OIR has been widely used to induce retinal neovascularization in studies related to retinal ischaemic diseases, including AMD, and in studies evaluating the efficacy of antiangiogenic compounds. Briefly, BALB/c-nude mice at postnatal day (P7) are subjected to hyperoxia (75% oxygen) along with their nursing dam for 5 days (P12), and then to room air to produce retinal neovascularization. Neovascularization occurs upon return to normoxia and peaks at P17. All of the mice in the OR model were perfusion fixed via left ventricular puncture at the time of euthanasia, with 5 ml rhodamine-conjugated dextran. Then, angiography of retinal vasculature was performed and retinal whole mounts were prepared to score features of retinopathy.

| Molecule | cell proliferation of late EPCs [1] | LDH release of late EPCs [2] | cell migration of late EPCs [3] | tube formation of late EPCs [4] | CFU-Hill colonies of early EPCs [5] | chemotaxis of early EPCs [6] | VEGF-induced vessels sprouting from aortic rings [7] | microvessel formation in the Matrigel plugs (hemoglobin content) [8] | cell invasion of melanoma cells [9] | production of VEGF in melanoma cells [10] | tumor growth of melanoma cells [11] | lung metastasis of melanoma cancer (pulmonary colony number) [12] | hyperoxia-induced pathological neovascularization in mice [13] |
| --- | --- | --- | --- | --- | --- | --- | --- | --- | --- | --- | --- | --- | --- |
| CC(C)[C@H](NC(=O)OCC1c2ccccc2-c2ccccc21)C(=O)N[C@@H](CO)Cc1ccccc1 [Fmoc-10a, (9H-fluoren-9-yl)methyl (S)-1-((R)-1-hydroxy-3-phenylpropan-2-ylamino)-3-methyl-1-oxobutan-2-ylcarbamate] | suppresses cell proliferation of late EPCs in a concentration-dependent manner | does not induce LDH release | significantly inhibits cell migration | significantly inhibits | significantly inhibits CFU-Hill colonies | markedly suppresses chemotaxis | dramatically abrogated VEGF-induced vessels sprouting | attenuated concentration-dependently microvessel formation | significantly inhibits cell invasion | significantly inhibits | potently blocks tumor growth of melanoma cells in a dose-dependent manner | substantially suppresses lung metastasis | significantly blocks hyperoxia-induced pathological neovascularization |
| Avastin: Avastin (10 μg) was used as positive control in the OIR model [reference compound] |  |  |  |  |  |  |  |  |  |  |  |  | significantly blocks hyperoxia-induced pathological neovascularization |
